Laboratory results from PMC11249637, “Interaction of the Atypical Tetracyclines Chelocardin and Amidochelocardin with Renal Drug Transporters” (ACS Pharmacology & Translational Science, 2024).

Key:
mOct2 = biological target: T1, mOct2 (Mus musculus, UniProt O70577); experiment: Two-point inhibition of mOct2-mediated MPP uptake in transfected HEK293 cells; format: in vitro ADME; settings: 1 and 10 μM; MPP 10 μM, 1 min
T1 construct: expressed in transfected cells; host or cells: HEK293
T1 sequence (O70577 1-553): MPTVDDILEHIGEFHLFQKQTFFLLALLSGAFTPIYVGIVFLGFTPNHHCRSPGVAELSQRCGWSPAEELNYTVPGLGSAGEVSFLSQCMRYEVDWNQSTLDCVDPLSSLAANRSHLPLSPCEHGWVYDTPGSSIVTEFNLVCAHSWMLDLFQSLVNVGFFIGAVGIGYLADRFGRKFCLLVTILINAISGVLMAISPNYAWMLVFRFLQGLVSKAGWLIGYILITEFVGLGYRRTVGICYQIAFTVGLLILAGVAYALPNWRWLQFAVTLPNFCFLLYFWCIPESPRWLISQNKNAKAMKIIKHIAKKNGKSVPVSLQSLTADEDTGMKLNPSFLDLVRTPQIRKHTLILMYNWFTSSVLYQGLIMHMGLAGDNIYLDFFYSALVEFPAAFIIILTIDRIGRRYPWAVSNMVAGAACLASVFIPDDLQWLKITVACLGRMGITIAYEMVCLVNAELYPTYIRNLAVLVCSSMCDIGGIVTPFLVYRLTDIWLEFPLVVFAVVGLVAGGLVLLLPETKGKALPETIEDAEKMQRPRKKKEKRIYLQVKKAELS
Description: (§1) Well-characterized mOct1-, mOct2-, mOat1-, mOat2-, mOat3-, mMate1-, hOAT1-, hOAT3-, hOAT4-, hMRP2-, mMdr1a- and mMdr1b-transfected HEK293 cells and the respective vector-transfected control HEK293 cells were used.[42],[51],[52] All HEK293 cells (transporter-transfected and vector-transfected) were cultured in DMEM (Sigma, high glucose, 10% FBS, 1% penicillin (10,000 Units/mL)/streptomycin (10 mg/mL)) at 37°C under 5% CO2 in humidified atmosphere. The cells were routinely checked for the absence of mycoplasma infection. For the preparation of HEK293 cell monolayers, 24-well plates were pretreated with a poly-D-lysine hydrobromide solution (0.1 mg/mL). […]
For the uptake assay, the growth medium was aspirated, and each well was rinsed three times with 0.5 mL of incubation buffer (HBSS supplemented with 20 mM HEPES, pH 7.4) and incubated for 20 min at 37 °C. […] Cells were solubilized with 0.6 mL of 1N NaOH overnight and transferred into scintillation vials. ^3H and ^14C contents were measured after the addition of 2.5 mL of scintillator in a liquid scintillation counter.
The cellular protein amount was determined in parallel for each cell line (vector- and transporter-transfected) from six wells in a different 24-well reference plate using the Bradford method. […]
The inhibitory effect (I(%)) was calculated according to the formula: [drawing 5] […]

mMdr1b = biological target: T2, mMdr1b (Mus musculus, UniProt P06795); experiment: Two-point inhibition of mMdr1b-mediated efflux of rhodamin123 in transfected HEK293 cells; format: in vitro ADME; settings: rhodamin123 10 μM, efflux 30 min
T2 construct: expressed in transfected cells; host or cells: HEK293
T2 sequence (P06795 whole entry): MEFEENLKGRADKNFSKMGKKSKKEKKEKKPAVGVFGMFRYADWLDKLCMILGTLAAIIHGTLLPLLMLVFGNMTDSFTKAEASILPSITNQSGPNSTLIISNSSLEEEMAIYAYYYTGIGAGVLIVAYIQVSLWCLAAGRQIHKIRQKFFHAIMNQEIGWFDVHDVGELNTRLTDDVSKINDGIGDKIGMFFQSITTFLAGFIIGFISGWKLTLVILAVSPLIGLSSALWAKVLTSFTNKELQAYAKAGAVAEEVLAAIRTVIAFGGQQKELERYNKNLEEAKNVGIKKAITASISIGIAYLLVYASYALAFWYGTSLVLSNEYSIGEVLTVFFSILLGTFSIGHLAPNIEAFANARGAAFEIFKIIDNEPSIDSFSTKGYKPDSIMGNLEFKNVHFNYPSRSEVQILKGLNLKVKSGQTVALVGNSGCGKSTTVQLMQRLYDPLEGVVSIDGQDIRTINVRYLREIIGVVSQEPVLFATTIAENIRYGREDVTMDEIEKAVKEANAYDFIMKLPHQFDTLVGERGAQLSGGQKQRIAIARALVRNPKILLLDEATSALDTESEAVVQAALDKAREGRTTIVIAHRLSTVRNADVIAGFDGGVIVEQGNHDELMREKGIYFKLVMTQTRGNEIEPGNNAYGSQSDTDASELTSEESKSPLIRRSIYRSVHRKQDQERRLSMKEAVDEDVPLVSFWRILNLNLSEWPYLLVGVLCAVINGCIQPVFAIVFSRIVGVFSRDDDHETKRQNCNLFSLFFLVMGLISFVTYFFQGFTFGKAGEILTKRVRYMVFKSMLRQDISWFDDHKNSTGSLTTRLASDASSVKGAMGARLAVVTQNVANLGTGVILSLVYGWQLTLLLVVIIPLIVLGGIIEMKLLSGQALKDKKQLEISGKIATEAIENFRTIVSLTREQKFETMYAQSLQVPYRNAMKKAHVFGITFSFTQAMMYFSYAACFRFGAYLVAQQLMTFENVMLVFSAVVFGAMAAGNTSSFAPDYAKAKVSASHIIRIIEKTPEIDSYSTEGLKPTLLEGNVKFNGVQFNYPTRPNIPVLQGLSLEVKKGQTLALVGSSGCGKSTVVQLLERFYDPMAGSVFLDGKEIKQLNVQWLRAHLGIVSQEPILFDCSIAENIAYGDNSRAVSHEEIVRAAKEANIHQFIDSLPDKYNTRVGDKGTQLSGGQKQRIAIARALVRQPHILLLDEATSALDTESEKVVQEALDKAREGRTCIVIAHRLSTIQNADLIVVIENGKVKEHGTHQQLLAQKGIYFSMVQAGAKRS
Description: as §1, with “mg/mL). Each well was coated with 0.5 mL of poly-D-lysine solution and incubated for at least 15 min.” for “mg/mL).”
For efflux assays, growth medium was aspirated, and each well was rinsed twice with 0.5 mL of incubation HBSS buffer (supplemented with 20 mM HEPES, pH 7.4) and then preincubated in 200 μL of incubation buffer containing 10 μM rhodamin123 and 10 μM cyclosporine A for 60 min at 37 °C for loading the cells with rhodamin123. […] Samples were diluted with incubation buffer, and fluorescence was measured in a 96-well plate (Sarstedt, flat bottom) at an extinction of 490 nm and emission of 535 nm. […]
The inhibitory effect I (%) and the efflux ratio was calculated in the same way described for the uptake assays.

| Structure (SMILES) | inhibitory effect on mOct2 (in words) (mOct2) | inhibition at 10 µM (mMdr1b; HEK293, at 10 μM, read-out: inhibitory effect on mMdr1b) | inhibitory effect on mMdr1b (in words) (mMdr1b; 1 and 10 μM) |
| --- | --- | --- | --- |
| Cc1ccc2c(C)c3c(c(O)c2c1O)C(=O)[C@@]1(O)C(=O)C(C(N)=O)=C(O)[C@@H](N)[C@H]1C3 [CDCHD, amidochelocardin] | No inhibitory effect | ~30% | – |
| CC(=O)C1=C(O)[C@@H](N)[C@H]2Cc3c(c(O)c4c(O)c(C)ccc4c3C)C(=O)[C@@]2(O)C1=O [CHD, chelocardin] | No inhibitory effect | – | no effect |
